Data taken from ChEMBL document CHEMBL1142766, “4-Fluorosulfonylpiperidines: selective 5-HT2A ligands for the treatment of insomnia” (Bioorg Med Chem Lett, 2005).

Columns and labels:
D(2) dopamine receptor = D(2) dopamine receptor (Homo sapiens, UniProt P14416); test: Binding affinity against human Dopamine receptor D2
[1] = target: Voltage-gated inwardly rectifying potassium channel KCNH2 (Homo sapiens, UniProt Q12809); test: Binding affinity against human IKr channel
[2] = target: 5-hydroxytryptamine receptor 2A (Homo sapiens, UniProt P28223); test: Binding affinity against human 5-hydroxytryptamine 2A receptor
[3] = target: T1, 5-hydroxytryptamine receptor 2C (Homo sapiens, UniProt P28335)
T1 sequence (P28335 whole entry): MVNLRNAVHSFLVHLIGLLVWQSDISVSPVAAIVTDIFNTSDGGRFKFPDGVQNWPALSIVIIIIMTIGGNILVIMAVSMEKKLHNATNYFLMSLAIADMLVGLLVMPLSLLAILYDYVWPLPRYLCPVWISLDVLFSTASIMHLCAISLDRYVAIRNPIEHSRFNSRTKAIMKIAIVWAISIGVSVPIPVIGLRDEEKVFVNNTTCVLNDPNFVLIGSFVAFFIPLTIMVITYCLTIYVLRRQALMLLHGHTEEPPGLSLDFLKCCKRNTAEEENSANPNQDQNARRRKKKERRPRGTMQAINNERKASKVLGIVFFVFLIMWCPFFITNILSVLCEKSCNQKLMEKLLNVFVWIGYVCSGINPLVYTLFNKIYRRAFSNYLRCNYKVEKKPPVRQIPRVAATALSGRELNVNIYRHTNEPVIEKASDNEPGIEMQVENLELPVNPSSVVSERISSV
Description: Binding affinity against human 5-hydroxytryptamine 2c receptor

[4] = pKa value of the compound; type: physicochemical
[5] = target: 5-hydroxytryptamine receptor 2A (Rattus norvegicus) (UniProt P14842); test: In vivo occupancy at rat 5-HT2A receptor at 30 min after dosing at 10 mg/kg per orally; type: functional, organism-based
[6] = target: 5-hydroxytryptamine receptor 2A (Rattus norvegicus, UniProt P14842); test: Binding affinity against rat 5-hydroxytryptamine 2A receptor
[7] = Bioavailability in rat; type: ADME, organism-based; conditions: in vivo
[8] = Plasma clearance after i.v. administration in rat; type: ADME, organism-based; conditions: iv, read-out: Clp
[9] = Half life period was determined; type: ADME; conditions: rat

D(2) dopamine receptor, sequence (P14416 whole entry): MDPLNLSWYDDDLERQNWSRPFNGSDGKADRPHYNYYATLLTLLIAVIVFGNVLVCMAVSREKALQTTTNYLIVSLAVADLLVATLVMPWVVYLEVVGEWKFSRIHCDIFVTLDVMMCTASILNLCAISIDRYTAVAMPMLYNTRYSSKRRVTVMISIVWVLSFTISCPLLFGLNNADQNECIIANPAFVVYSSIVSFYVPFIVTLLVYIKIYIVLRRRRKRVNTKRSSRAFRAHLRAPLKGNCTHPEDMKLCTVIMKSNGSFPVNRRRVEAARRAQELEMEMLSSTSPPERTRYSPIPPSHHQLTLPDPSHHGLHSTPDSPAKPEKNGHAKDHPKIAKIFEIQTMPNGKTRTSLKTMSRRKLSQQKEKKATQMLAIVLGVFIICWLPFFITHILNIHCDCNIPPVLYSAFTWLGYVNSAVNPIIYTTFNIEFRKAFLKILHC
5-hydroxytryptamine receptor 2A (Homo sapiens, UniProt P28223), sequence (P28223 whole entry): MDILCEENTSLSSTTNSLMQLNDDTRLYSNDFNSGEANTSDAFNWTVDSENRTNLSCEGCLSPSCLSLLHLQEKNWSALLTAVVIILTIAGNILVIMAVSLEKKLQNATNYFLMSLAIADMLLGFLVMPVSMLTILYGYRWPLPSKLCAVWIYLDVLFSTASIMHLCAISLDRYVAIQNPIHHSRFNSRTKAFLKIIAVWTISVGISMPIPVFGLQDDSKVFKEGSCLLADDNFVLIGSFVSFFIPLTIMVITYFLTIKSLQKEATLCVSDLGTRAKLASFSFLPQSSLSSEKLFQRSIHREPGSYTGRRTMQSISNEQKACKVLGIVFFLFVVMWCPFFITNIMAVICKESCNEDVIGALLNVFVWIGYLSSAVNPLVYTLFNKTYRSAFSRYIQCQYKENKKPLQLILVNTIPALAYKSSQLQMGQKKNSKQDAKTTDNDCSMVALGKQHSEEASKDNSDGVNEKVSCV
5-hydroxytryptamine receptor 2A (Rattus norvegicus), sequence (P14842 whole entry): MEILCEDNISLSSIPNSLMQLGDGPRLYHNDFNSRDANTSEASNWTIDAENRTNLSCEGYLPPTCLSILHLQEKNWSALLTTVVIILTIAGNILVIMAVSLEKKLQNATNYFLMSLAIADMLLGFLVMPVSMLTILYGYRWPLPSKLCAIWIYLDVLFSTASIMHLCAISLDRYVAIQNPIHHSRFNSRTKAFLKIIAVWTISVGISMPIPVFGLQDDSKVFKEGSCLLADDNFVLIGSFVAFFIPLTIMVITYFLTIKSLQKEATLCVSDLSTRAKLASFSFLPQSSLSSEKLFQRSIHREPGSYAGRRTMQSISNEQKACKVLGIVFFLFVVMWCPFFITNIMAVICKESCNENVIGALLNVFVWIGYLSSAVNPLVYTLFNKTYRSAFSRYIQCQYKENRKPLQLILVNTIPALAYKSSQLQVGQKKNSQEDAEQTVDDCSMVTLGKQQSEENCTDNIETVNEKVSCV
5-hydroxytryptamine receptor 2A (Rattus norvegicus, UniProt P14842), sequence (P14842 whole entry): as above
Voltage-gated inwardly rectifying potassium channel KCNH2, sequence (Q12809 whole entry): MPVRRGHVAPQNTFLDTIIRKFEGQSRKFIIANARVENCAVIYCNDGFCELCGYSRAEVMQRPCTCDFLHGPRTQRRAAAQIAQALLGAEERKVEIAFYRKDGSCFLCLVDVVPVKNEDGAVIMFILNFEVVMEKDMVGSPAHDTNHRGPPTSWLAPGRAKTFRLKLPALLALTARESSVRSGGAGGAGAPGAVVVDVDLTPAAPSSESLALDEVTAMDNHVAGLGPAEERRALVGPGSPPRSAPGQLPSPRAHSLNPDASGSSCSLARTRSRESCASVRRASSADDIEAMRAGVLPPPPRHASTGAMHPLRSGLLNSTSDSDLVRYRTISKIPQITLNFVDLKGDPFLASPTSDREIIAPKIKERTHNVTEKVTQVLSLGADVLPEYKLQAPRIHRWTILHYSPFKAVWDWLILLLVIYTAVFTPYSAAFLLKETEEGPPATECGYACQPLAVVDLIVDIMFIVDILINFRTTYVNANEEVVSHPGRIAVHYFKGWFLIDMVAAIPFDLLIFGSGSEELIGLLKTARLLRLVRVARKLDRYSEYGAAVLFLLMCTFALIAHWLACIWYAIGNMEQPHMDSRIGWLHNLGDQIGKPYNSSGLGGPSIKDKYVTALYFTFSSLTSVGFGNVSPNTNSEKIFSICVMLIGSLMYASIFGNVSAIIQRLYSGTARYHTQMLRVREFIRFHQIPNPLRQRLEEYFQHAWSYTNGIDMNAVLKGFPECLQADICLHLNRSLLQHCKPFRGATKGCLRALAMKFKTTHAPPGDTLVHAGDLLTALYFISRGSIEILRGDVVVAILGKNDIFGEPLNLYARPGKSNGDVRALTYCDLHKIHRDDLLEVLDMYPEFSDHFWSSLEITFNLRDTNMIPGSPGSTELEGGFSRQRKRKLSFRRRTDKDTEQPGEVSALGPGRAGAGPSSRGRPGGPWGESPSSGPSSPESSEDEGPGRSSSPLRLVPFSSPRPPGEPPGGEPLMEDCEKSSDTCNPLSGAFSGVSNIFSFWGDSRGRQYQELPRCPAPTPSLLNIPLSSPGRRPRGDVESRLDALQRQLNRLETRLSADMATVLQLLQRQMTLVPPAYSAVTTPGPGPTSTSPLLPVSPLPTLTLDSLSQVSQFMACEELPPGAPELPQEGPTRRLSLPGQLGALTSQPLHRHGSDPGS

| Ki (D(2) dopamine receptor) [nM] | Ki [2] [nM] | Ki [3] [nM] | pKa [4] | Activity [5] | Ki [6] [nM] | SMILES | Ki [1] [nM] | bioavailability [7] [%] | clearance [8] [mL/min] | half-life [9] [h] |
| --- | --- | --- | --- | --- | --- | --- | --- | --- | --- | --- |
| 266 | 0.32 | 14 | – | – | – | O=S(=O)(c1ccccc1F)C1(F)CCN(CCc2ccc(F)cc2F)CC1 | 398 | – | – | – |
| 791 | 0.3 | 49 | – | – | – | O=S(=O)(c1cccc(F)c1)C1(F)CCN(CCc2ccc(F)cc2F)CC1 | – | – | – | – |
| – | – | – | 7.2 | – | – | O=S(=O)(c1ccc(F)cc1)C1CCN(CCc2ccc(F)cc2F)CC1 | – | – | – | – |
| – | – | – | 7.3 | – | – | O=S(=O)(c1ccccc1)C1CCN(CCc2ccc(F)cc2F)CC1 | – | – | – | – |
| > 2000 | 0.66 | > 4000 | – | 62 | – | O=S(=O)(c1ccc(-n2ccnn2)cc1)C1(F)CCN(CCc2ccc(F)cc2F)CC1 | > 9000 | – | – | – |
| > 2000 | 1 | 844 | – | 49 | 0.3 | O=S(=O)(c1ccc(N2CCC2)cc1)C1(F)CCN(CCc2ccc(F)cc2F)CC1 | – | – | – | – |
| > 1000 | 0.68 | 49 | – | – | – | O=S(=O)(c1ccccc1)C1(F)CCN(CCc2ccc(F)cc2F)CC1 | 2450 | – | – | – |
| 863 | 2.7 | 1490 | 6.4 | 80 | 1.33 | N#Cc1ccc(S(=O)(=O)C2(F)CCN(CCc3ccc(F)cc3F)CC2)cc1 | 2700 | – | – | – |
| > 1000 | 0.64 | – | – | – | – | O=S(=O)(c1ccc(Cl)cc1)C1(F)CCN(CCc2ccc(F)cc2F)CC1 | – | – | – | – |
| > 1500 | 2.4 | 130 | 6.3 | – | 0.51 | O=C(CN1CCC(S(=O)(=O)c2ccccc2)CC1)c1ccc(F)cc1F | 6800 | – | – | – |
| > 2000 | 2 | > 4000 | – | 37 | 1.6 | O=S(=O)(c1ccc(-n2cccn2)cc1)C1(F)CCN(CCc2ccc(F)cc2F)CC1 | > 9000 | – | – | – |

| SMILES | Ki (D(2) dopamine receptor) [nM] | Ki [2] [nM] | Ki [3] [nM] | pKa [4] | Activity [5] | Ki [6] [nM] | Ki [1] [nM] | bioavailability [7] [%] | clearance [8] [mL/min] | half-life [9] [h] |
| --- | --- | --- | --- | --- | --- | --- | --- | --- | --- | --- |
| O=S(=O)(c1ccc(F)cc1)C1(F)CCN(CCc2ccc(F)cc2F)CC1 | 313 | 0.39 | 176 | 6.3 | 98% | 0.63 | 5560 | 51 | 69 | 3.8 |
